Measured values taken from patent US4476137A, “[1-(2-Benzoxazolyl)hydrazino]alkyl nitrile derivatives” (Abbott Laboratories, priority 1983, dated 1984).

system: carrageenin pleurisy; assay: modified carrageenin pleurisy assay (reduction in accumulation of exudate volume and leukocytes); assay type: in vivo; conditions: Dose 100 (unit not given)
Source text: The anti-inflammatory activity of these compounds was established by using a modification of the carrageenin pleurisy assay described in Vinegar et al. Proc. Soc. Exp. Biol. Med. 143:711 (1973).

Compound | % Inhibition Cells (leukocyte accumulation) | % Inhibition Volume exudates
N#CCCN(N)c1nc2ccccc2o1 [3-[1-(2-Benzoxazolyl)hydrazino]propanenitrile] | 39% | 61%
CCCCC1C(=O)N(c2ccccc2)N(c2ccccc2)C1=O [Phenylbutazone, reference compound] | 13% | 59%

system: dermal Arthus reaction; assay: reverse passive Arthus reaction test (Type III hypersensitivity), reduction of dermal lesion; assay type: in vivo, Male Sprague-Dawley rats; conditions: 100 mg/kg oral, 30 min before intradermal Anti-B.S.A.; lesion measured four hours later; 4 rats per group
Experimental: Proc. 35, 774 (1976). Each compound was administered orally to a group of four animals.
The […] passive Arthus reaction test in rats is conducted as follows: Male Sprague-Dawley rats weighing approximately 130-160 g. are used, 4 rats per group. All animals are injected intravenously with 0.5 ml. 0.075% Bovine Serum Albumin (B.S.A.)+2% Evans Blue solution. Each rat then receives an oral dose of drug; one drug is administered per group.
Thirty minutes subsequent to drug dosing, each animal is injected intradermally with 0.05 ml. 1.44% Anti-B.S.A. into the dorsal skin. Four hours later the animals are sacrificed, the dorsal skin reflexed, and the lesion excised. Two perpendicular diameters of each lesion are measured. The average diameters of the lesions from the treated groups are compared with the average diameters from the control group to determine any drug effect.

Compound | % Inhibition of lesion of dermal Arthus reaction
N#CCCN(N)c1nc2ccccc2s1 [3-[1-(2-benzthiazolyl)hydrazino]propanenitrile] | 59%
CCCCC1C(=O)N(c2ccccc2)N(c2ccccc2)C1=O [Phenylbutazone, reference compound] | inactive

same assay, conditions: Rattus norvegicus, 4 h; 100 mg/kg oral, 30 min before intradermal Anti-B.S.A.; lesion measured four hours later; 4 rats per group

Compound | inhibition in vivo at 100 mg/kg
N#CCCN(N)c1nc2ccccc2o1 [3-[1-(2-Benzoxazolyl)hydrazino]propanenitrile] | 68%
CC(C#N)CN(N)c1nc2ccccc2o1 (stereo not shown) [3-[1-(2-benzoxazolyl)hydrazino]-2-methylpropanenitrile] | 45%
CC(CC#N)N(N)c1nc2ccccc2o1 (stereo not shown) [3-[1-(2-benzoxazolyl)hydrazino]-3-methylpropanenitrile] | 48%
Cc1cc2oc(N(N)CCC#N)nc2c(C)c1C [3-[1-(4,5,6-Trimethyl-2-benzoxazolyl)hydrazino]propanenitrile] | 59%
Cc1cc(C)c2oc(N(N)CCC#N)nc2c1C [3-[1-(4,5,7-Trimethyl-2-benzoxazolyl)hydrazino]propanenitrile] | 55%
Cc1cc(C)c2oc(N(N)CCC#N)nc2c1 [3-[1-(5,7-dimethyl-2-benzoxazolyl)hydrazino]propanenitrile] | 59%
N#CCCN(N)c1nc2cc(C#N)ccc2o1 [3-[1-(5-cyano-2-benzoxazolyl)hydrazino]propanenitrile] | 66%
N#CCCN(N)c1nc2cc(F)ccc2o1 [3-[1-(5-fluoro-2-benzoxazolyl)hydrazino]propanenitrile] | 55%
N#CCCN(N)c1nc2cc(CS)ccc2o1 [3-[1-(5-mercaptomethyl-2-benzoxazolyl)hydrazino]propanenitrile] | 40%
COc1ccc2oc(N(N)CCC#N)nc2c1 [3-[1-(5-methoxy-2-benzoxazolyl)hydrazino]propanenitrile] | 67%
Cc1ccc2oc(N(N)CCC#N)nc2c1 [3-[1-(5-methyl-2-benzoxazolyl)hydrazino]propanenitrile] | 70%
N#CCCN(N)c1nc2cc(C(F)(F)F)ccc2o1 [3-[1-(5-trifluoromethyl-2-benzoxazolyl)hydrazino]propanenitrile] | 48%
Cc1ccc2nc(N(N)CCC#N)oc2c1 [3-[1-(6-methyl-2-benzoxazolyl)hydrazino]propanenitrile] | 58%
Cc1cc2oc(N(N)CCC#N)nc2cc1Cl [3-[1-(6-methyl-5-chloro-2-benzoxazolyl)hydrazino]propanenitrile] | 76%
N#CCCN(N)c1nc2cccc(Cl)c2o1 [3-[1-(7-Chloro-2-benzoxazolyl)hydrazino]propanenitrile] | 48%
Cc1cccc2nc(N(N)CCC#N)oc12 [3-[1-(7-methyl-2-benzoxazolyl)hydrazino]propanenitrile] | 47%
